For data set [1], the target named is T1, Rhomboid protease GlpG (Escherichia coli (strain K12)) (UniProt P09391).
T1 sequence (whole entry): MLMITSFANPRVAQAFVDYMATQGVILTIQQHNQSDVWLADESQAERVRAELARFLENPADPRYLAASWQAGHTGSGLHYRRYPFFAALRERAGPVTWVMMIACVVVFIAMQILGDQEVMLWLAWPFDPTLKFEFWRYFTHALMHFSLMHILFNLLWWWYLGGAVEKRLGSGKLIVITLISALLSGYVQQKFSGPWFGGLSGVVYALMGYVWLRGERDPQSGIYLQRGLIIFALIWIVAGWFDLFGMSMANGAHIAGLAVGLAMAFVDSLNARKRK
In words: Inhibition of GlpG in Escherichia coli BL21 assessed as inhibition of FP-Rh labeling at 200 uM treated with compound prior to FP-Rh addition by competitive ABPP based analysis.

The target of data set [2] is T2, Presenilin-associated rhomboid-like protein, mitochondrial (Homo sapiens) (UniProt Q9H300).
T2 sequence (whole entry): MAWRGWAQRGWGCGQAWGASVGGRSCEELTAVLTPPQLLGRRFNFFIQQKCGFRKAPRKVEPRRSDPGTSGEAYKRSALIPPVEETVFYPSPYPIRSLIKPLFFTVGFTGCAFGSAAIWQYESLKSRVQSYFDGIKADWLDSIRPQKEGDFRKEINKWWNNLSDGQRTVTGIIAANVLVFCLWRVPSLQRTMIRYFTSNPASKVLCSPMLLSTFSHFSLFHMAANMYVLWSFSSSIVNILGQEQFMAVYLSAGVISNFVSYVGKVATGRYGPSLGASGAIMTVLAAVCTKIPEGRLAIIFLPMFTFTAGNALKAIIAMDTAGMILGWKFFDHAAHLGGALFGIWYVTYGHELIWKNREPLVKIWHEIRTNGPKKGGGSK
In words: Inhibition of FLAG-tagged human PARL transfected in HEK293T cell membrane assessed as inhibition of FP-Rh labeling at 200 uM treated with compound prior to FP-Rh addition by competitive ABPP based analysis. The data set is classed as cell membranes.

A short description of data set [3]: Solubility of the compound in HEK-293T cell membrane transfected with FLAG-tagged human PARL. It is filed as ADME, cell membranes.
Data set [4] has as its target T3, Presenilin-associated rhomboid-like protein, mitochondrial (Homo sapiens, UniProt Q9H300).
T3 sequence (Q9H300 whole entry): T2 sequence (whole entry)
Put plainly: Inhibition of human PARL transfected in HEK293T cell membrane assessed as inhibition of FP-Rh labeling treated with compound for 30 mins prior to FP-Rh addition by competitive ABPP based analysis. The data set is classed as cell membranes.

Data set [5] deals with T2, Presenilin-associated rhomboid-like protein, mitochondrial (Homo sapiens). In words: Reversible inhibition of FLAG-tagged human PARL transfected in HEK293T cell membrane assessed as FP-Rh labeling at 200 uM treated with compound followed by gel filtration and later incubated for 4 hrs prior to FP-Rh labeling by competitive ABPP based analysis. It is filed as cell membranes. Details: Activity: scale not given: the % may be the effect or the level left. (In general: Size exclusion chromatography separates by hydrodynamic size, large species first.)

For another data set, the target named is T4, Rhomboid protease GlpG (Escherichia coli (strain K12), UniProt P09391).
T4 sequence (P09391 whole entry): T1 sequence (whole entry)
Put plainly: Inhibition of GlpG in Escherichia coli BL21 assessed as inhibition of FP-Rh labeling treated with compound for 30 mins prior to FP-Rh addition by competitive ABPP based analysis.

The target in data set [6] is T2, Presenilin-associated rhomboid-like protein, mitochondrial (Homo sapiens). Put plainly: Inhibition of FLAG-tagged human PARL transfected in HEK293T cell membrane assessed as inhibition of FP-Rh labeling at 100 uM incubated for 24 hrs followed by cells washing and lysis prior to FP-Rh labeling by In situ based analysis. It is filed as cell membranes.
Data set [7] shares this target. Put plainly: Reversible inhibition of FLAG-tagged human PARL transfected in HEK293T cell membrane assessed as FP-Rh labeling at 200 uM treated with compound followed by gel filtration and later incubated for 4 hrs prior to FP-Rh labeling by western blot analysis. It is filed as cell membranes.
Data set [8] has the same target. Put plainly: Inhibition of FLAG-tagged human PARL transfected in HEK293T cell membrane assessed as inhibition of FP-Rh labeling at 100 uM incubated for 8 hrs followed by cells washing and lysis prior to FP-Rh labeling by In situ based analysis. The data set is classed as cell membranes.

pIC50: −log10 of the molar value. Calls of active or inactive are those of the source. The rule behind the calls is not given here.

Consider 33 compounds from ChEMBL document CHEMBL4825728, “Development of succinimide-based inhibitors for the mitochondrial rhomboid protease PARL” (Bioorg Med Chem Lett, 2021).

As to `O=c1oc(Cl)c(Cl)c2ccccc12`, the inhibition entry in data set [1] and in data set [2] was “Active” in each case. Consider `COc1ccc(S(=O)(=O)N2C(=O)c3ccccc3C2=O)cc1`, for which the solubility result in [3] is “Soluble”. With `O=C1CCC(=O)N1OS(=O)(=O)c1ccc2ccccc2c1`, the solubility result in [3] is on record as “Soluble”. As to `O=C1c2ccccc2C(=O)N1S(=O)(=O)c1ccc(-c2ccccc2)cc1`, the solubility entry in data set [3] is “Soluble”. On to `CS(=O)(=O)ON1C(=O)CCC1=O`, for which, in data set [3], the solubility entry was “Soluble”. As for `O=C1CCC(=O)N1S(=O)(=O)c1ccc2ccccc2c1`, the solubility entry in data set [3] is “Soluble”. On the same count and under the same terms, as for `O=C1CCC(=O)N1OS(=O)(=O)c1ccc([N+](=O)[O-])cc1`, the entry is “Soluble”; as for `O=C1c2ccccc2C(=O)N1OS(=O)(=O)c1ccc2ccccc2c1`, “Soluble”.

For the compound `O=C1CCC(=O)N1S(=O)(=O)c1ccccc1`, the pIC50 – broadly, the IC50 on a negative log10 scale, so that one unit is a factor of ten – in data set [4] is 5.37; at Rhomboid protease GlpG, < 3.00. In data set [5], the inhibition (as a rule, the percentage by which the read-out fell short of the control) is “Active”. For the same compound, the inhibition result in [6] is “inactive”. In [3], the solubility entry is “Soluble”.

Regarding `COc1ccc(S(=O)(=O)N2C(=O)CCC2=O)cc1`, the solubility entry in [3] was “Soluble”.

In the case of `CC(C)S(=O)(=O)N1C(=O)CCC1=O`, the solubility entry in data set [3] was “Soluble”. Regarding `O=C1c2ccccc2C(=O)N1S(=O)(=O)c1ccc2ccccc2c1`, the solubility result in data set [3] is listed as “Soluble”.

In the case of `O=C1CCC(=O)N1OS(=O)(=O)c1ccccc1`, the pIC50 in data set [4] was 4.70; at Rhomboid protease GlpG, 3.92. Besides, the inhibition entry in [5] and in [7] was “Active” in each case. Further, the inhibition in data set [8] is > 50%. The inhibition entry in [6] was “inactive”. Further, the solubility result in [3] is “Soluble”.

Consider `CC(C)S(=O)(=O)ON1C(=O)CCC1=O`, for which the solubility entry in [3] is on record as “Soluble”. With `Cc1ccc(S(=O)(=O)N[C@@H](Cc2ccccc2)C(=O)CCl)cc1`, the inhibition result in data set [1] and in data set [2] was “inactive” in each case. With `CC(C)S(=O)(=O)ON1C(=O)c2ccccc2C1=O`, the solubility result in data set [3] is on record as “Soluble”. Turning to `O=C1CCC(=O)N1OS(=O)(=O)c1ccc(-c2ccccc2)cc1`, the figures for the negative-log IC50 (pIC50) (in data set [4]; at Rhomboid protease GlpG) were 5.72 and 4.59, respectively. Also, the solubility result in data set [3] was “Soluble”. Consider `O=C1CCC(=O)N1S(=O)(=O)c1ccc(-c2ccccc2)cc1`, for which the pIC50 in data set [4] is 6.15; on Rhomboid protease GlpG it was 4.17. Besides, the solubility entry in [3] was “Soluble”. In the case of `CS(=O)(=O)ON1C(=O)c2ccccc2C1=O`, the solubility result in [3] is reported as “Soluble”. For `O=C(OCN1C(=O)c2ccccc2S1(=O)=O)c1ccccc1Cl`, the negative-log IC50 (pIC50) in data set [4] was 5.06; at Rhomboid protease GlpG it was 5.55. Moreover, in data set [5], the Activity stood at 20%. For the same compound, the figures for the inhibition in data set [1], in data set [8] and in data set [2] were 100%, > 50% and 100%, respectively. For the same compound, in data set [6], the inhibition entry is “inactive”. For the compound `O=C1CCC(=O)N1S(=O)(=O)c1ccc([N+](=O)[O-])cc1`, the pIC50 was 6.05 in data set [4] and 3.51 at Rhomboid protease GlpG. The inhibition result in data set [8] is “Active”. Moreover, in data set [6], the inhibition result is “inactive”. Also, in [3], the solubility entry is reported as “Soluble”.

As to `O=S(=O)(F)Cc1ccccc1`, the inhibition result in data set [1] and in [2] was “inactive” each time.

For the compound `O=C1c2ccccc2C(=O)N1OS(=O)(=O)c1ccc(-c2ccccc2)cc1`, the solubility entry in [3] is “Soluble”. The same measure, in the same setting: as for `O=C1c2ccccc2C(=O)N1OS(=O)(=O)c1ccc([N+](=O)[O-])cc1`, the entry is “Soluble”; as for `CC(C)S(=O)(=O)N1C(=O)c2ccccc2C1=O`, “Soluble”.

Regarding `O=C1c2ccccc2C(=O)N1S(=O)(=O)c1ccccc1`, the solubility result in [3] is given as “Soluble”. Regarding `COc1ccc(S(=O)(=O)ON2C(=O)CCC2=O)cc1`, the solubility entry in data set [3] is listed as “Soluble”. For `NCCc1ccc(S(=O)(=O)F)cc1`, the inhibition entry in data set [1] and in [2] was “inactive” in each case.

For the compound `COc1ccc(S(=O)(=O)ON2C(=O)c3ccccc3C2=O)cc1`, in data set [3], the solubility entry is “Soluble”. In the case of `O=C1c2ccccc2C(=O)N1S(=O)(=O)c1ccc([N+](=O)[O-])cc1`, the solubility result in data set [3] is recorded as “Soluble”. Still for that read-out and setting: as for `CS(=O)(=O)N1C(=O)CCC1=O`, the entry is “Soluble”; as for `CS(=O)(=O)N1C(=O)c2ccccc2C1=O`, “Soluble”; as for `O=C1c2ccccc2C(=O)N1OS(=O)(=O)c1ccccc1`, “Soluble”.
